According to patent US8242152B2, “Use of 4-[(4-thiazolyl)phenoxy]alkoxy-benzamidine derivatives for the prophylaxis and treatment of osteoporosis” (Dong Wha Pharmaceutical Co., Ltd., priority 2001, dated 2012):
pIC50: −log10 of the molar value.

Columns and labels:
[1] = tested on: Primary osteoblastic cells; assay: ALP activity in primary osteoblastic cells (Example 5); assay type: cell-based, ICR mice; settings: for ALP activity (% of control) / ALP activity (Unit): 3 days
Protocol: Primary osteoblastic cells isolated from the calvariae of newborn ICR mice were grown to confluence in α-MEM containing 10% FBS. These cells were plated at a density of 1×10^5/ml in tissue culture dishes. After 24 h, cells were changed with a differentiation medium containing ascorbic acid (50 ug/ml) and β-glycerophosphate (10 mM) with or without the compounds and further cultured for 3 days. Cells were washed twice with PBS and harvested. For the measurement of ALP activity and total protein content, cells were extracted into 0.1% Triton X-100 in PBS containing 1 mM MgCl2 and centrifuged at 1.000×g for 5 minutes. Enzyme activity was determined in supernatants by colorimetric procedure using p-nitrophenyl phosphate (PNP) as a substrate at a wavelength of 405 nm and the protein content was determined by a Bio-Rad protein assay kit. The ALP unit was expressed as nmol PNP/ug protein/min.

[2] = tested on: osteoclast fusion; assay: Osteoclast fusion assay with purified prefusion osteoclasts (Example 5); assay type: cell-based, mice; settings: for inhibition at 0.08 µM / inhibition at 0.4 µM / inhibition at 2 µM / inhibition at 10 µM: read-out: Inhibitory action (%)
Protocol: The effect of the compounds on the fusion of osteoclasts was examined using purified prefusion osteoclasts (pOC, mononuclear and binuclear osteoclasts). Co-cultures of bone marrow cells (2×10^7 cells/dish) and newborn mice calvariae (1×10^6 cells/dish) were maintained in 100-mm-diameter dishes for 4 days with osteoclast differontiarion factor. Cultures were washed twice with PBS and treated with 0.1% collagenase/dispase at 37° C. for 20 minutes. Released cells, mostly osteoblasts, were removed with a pipet and the plates were washed three times with PBS. The remaining cells were incubated with 30 uM echistatin in α-MEM containing 1% BSA for 20 min at 37° C. These cells were collected, pelleted, and washed once with α-MEM containing 10% FBS. The cells released by this treatment were the subject of the fusion assay. More than 90% of the cells in the pOCs preparation used in the present study were positive for TRAP.
pOCs (15,000 cells/well) were plated on 96 well culture plates with or without various compounds. After culture for 18 hours, the cells were fixed and stained for TRAP.

[3] = tested on: osteoclast fusion; assay: Fusion assay of prefusion osteoclasts (Example 2); assay type: cell-based, mice; settings: 24 hrs; for inhibition at 0.08 µM / inhibition at 0.4 µM / inhibition at 2 µM / inhibition at 10 µM: read-out: Inhibitory action (%)
Description: This assay is designed to evaluate the influences of each test substance in terms of osteoclast fusion during the differentiation process in which immature prefusion osteoclasts (pOC; osteoclast structure with one more nuclei) were transformed into mature multinucleated osteoclast (OCL) via cell to cell fusion (Gregg Wesolowski et al. Experimental Cell Research 219,679-686, 1995).
The prefusion osteoclast can be obtained via co-culture of both bone marrow cells and osteoblast, as prepared from Example 1. The mixture of both osteoblast (about 5×10^5 cells/plate) and bone marrow cells (about 1×10^7 cells/plate) were co-cultured in a 100 mm culture dish. Some differentiation factors, such as dexamethasone (10^−6M) and vitamin D3 (10^−9M), were added to the medium from the first day of culture. The medium was changed with a fresh medium containing differentiation factors every 2 days.
Since a great number of the prefusion osteoclasts having one or more nuclei in fusion process were formed during 4-day co-culture, the cells were separated and co-cultivation after 4 days. The medium was removed from the cells and with the addition of 0.2% collagenase solution (4 mL), the cells were incubated at 37° C. for 20 mins to separate the attachment cells. Since the majority of separated cells were osteoblasts, all osteoblasts were washed with PBS solution two or three times for their complete removal.
After the remaining prefusion osteoclasts were separated via reaction for 20 mins with the addition of echistatin containing 10% BSA, the cells were harvested by centrifuge.
The test substances diluted at each concentration were diluted at the desired concentration in α-MEM medium (addition of 10% FBS) to load them into a 96-well microplate in a dose of 100 uL per well. The osteoclastic monocytes, so separated from the preceding No. 1, were plated on a 96-well microplate in a dose of 5×10^3 cell/100 uL per well and cultured at 37° C. for 24 hrs, thus successfully resulting in the osteoclast fusion. In the case of specimen-free and positive controls, experiments were performed in the same manner as above.
The medium was removed from the cells and then the cells were washed once with PBS and fixed to a PBS solution containing 10% formalin for about 5 mins. The cells were again fixed to both ethanol and acetone (1/1) in a mixing solution for about 5 mins and dried off. The cells were further treated by TRAP staining solution for 15 mins and washed with water to observe the cells under the microscope. The TRAP-positive osteoclast counts, which were differentiated from monocyte to multinucleated cells (osteoclast having more than 10 nuclei) via fusion process, were measured.

[4] = tested on: osteoclast activity (resorption pits); assay: Bone resorption pit formation assay on dentine slice (Example 5); assay type: cell-based, mice; settings: for Inhibitory activity (%) / inhibition at 0.01 µM / inhibition at 0.1 µM / inhibition at 1 µM: dentine slice, 24 h; for inhibition at 0.01 µM / inhibition at 0.1 µM / inhibition at 1 µM: Mus musculus, Osteoclast, read-out: Inhibitory activity (%)
Protocol: Method for evaluating the effects of the compounds on osteoclast activity: Multinucleated osteoclasts were developed on collagen gel plates by co-culture system as described. On day 6-8 of the co-culture, multinucleated OCLs were detached from plates by 0.2% collagenase treatment (“crude OCLs”). Crude OCLs suspended in α-MEM containing 10% FBS were placed on a dentine slice (4 mm diameter) in a 96-well culture plate. […] At the end of the incubation, cells were removed by 1 M NH4OH treatment and resorption pits formed (in the slices stained with Mayer's hematoxylin). Resorption pits were enumerated with an image analyzer and compared to the control group.

[5] = tested on: osteoclast differentiation; assay: Osteoclast differentiation, co-culture, TRAP(+)MNCs (Example 5); assay type: cell-based, mice; settings: for % inhibitory action / inhibition at 0.01 µM / inhibition at 0.1 µM / inhibition at 1 µM: day 6; for inhibition at 0.01 µM / inhibition at 0.1 µM / inhibition at 1 µM: Mus musculus, Osteoclast, 144 h, read-out: % inhibitory action
Protocol: To investigate the effect of compounds on osteoclast differentiation, co-culture between bone marrow cells (2.5×10^5 cells/cm^2) and calvaria-derived osteoblastic cells (4×10^4 cells/cm^2) was conducted in the presence of 1.25(OH)2D3(10^−8 M) and dexamethasone (10^−7 M) with α-MEM containing 10% FBS (referred as “osteoclastic medium”). Bone marrow cells were isolated from the femora of 6-week-old ddY mice and primary osteoblastic cells were isolated from the calvariae of newborn ICR mice by sequential digestion with 0.2% collagenase. The medium was changed every two days with fresh osteoclastic medium. An index of osteoclast formation was determined by counting TRAP-positive multinucleated osteoclasts (TRAP(+)MNCs). On day 6, the cells were fixed with 10% formaldehyde and stained for TRAP. The number of TRAP(+) MNCs containing more than 6-7 nuclei was counted under a microscope (ZEISS Axiovert 25, Switzerland). The results are shown as the relative inhibitory activity (% inhibition) compared to the control group.

[6] = Mus musculus, Osteoclast, 0.08 uM, 18 hours
[7] = Mus musculus, Osteoclast, 0.4 uM, 18 hours
[8] = Mus musculus, Osteoclast, 2 uM, 18 hours
[9] = Mus musculus, Osteoclast, 10 uM, 18 hours
[10] = Mus musculus, Osteoclast, 0.08 uM
[11] = Mus musculus, Osteoclast, 0.4 uM
[12] = Mus musculus, Osteoclast, 10 uM

Row | Compound | ALP activity (% of control) ([1]; 0.01 uM) | ALP activity (Unit) ([1]; 0.01 uM) [nmol PNP/ug protein/min] | ALP activity (% of control) ([1]; 0.1 uM) | ALP activity (Unit) ([1]; 0.1 uM) [nmol PNP/ug protein/min] | inhibition at 0.08 µM [2, 6] [%] | inhibition at 0.4 µM [2, 7] [%] | inhibition at 2 µM [2, 8] [%] | inhibition at 10 µM [2, 9] [%] | inhibition at 0.08 µM [3, 10] [%] | inhibition at 0.4 µM [3, 11] [%] | inhibition at 2 µM ([3]; Mus musculus, Osteoclast, 2 uM) [%] | inhibition at 10 µM [3, 12] [%] | inhibition at 0.01 µM ([4]; 0.01 uM) [%] | inhibition at 0.1 µM ([4]; 0.1 uM) [%] | inhibition at 1 µM ([4]; 1 uM) [%] | inhibition at 0.01 µM ([5]; 0.01 uM) [%] | inhibition at 0.1 µM ([5]; 0.1 uM) [%] | inhibition at 1 µM ([5]; 1 uM) [%] | also measured
1 | 4-[5-[4-(aminoiminomethyl)phenoxy]pentoxy]-3-methoxy-N,N-bis(1-methylethyl)benzamide maleic acid [CGS-25019C] | 121.3 % of control | 20.6 | 115.3 % of control | 19.7 | – | – | – | – | – | – | – | – | – | – | – | – | – | – | Inhibitory action (%) ([2]; 0.08 uM, 18 hours): 10.14%; Inhibitory action (%) ([2]; 0.4 uM, 18 hours): 13.04%; Inhibitory action (%) ([2]; 2 uM, 18 hours): 13.77%; Inhibitory action (%) ([2]; 10 uM, 18 hours): 12.32%; Inhibitory action (%) ([3]; 0.08 uM): 10.14%; Inhibitory action (%) ([3]; 0.4 uM): 13.04%; Inhibitory action (%) ([3]; 2 uM): 13.77%; Inhibitory action (%) ([3]; 10 uM): 12.32%; Inhibitory activity (%) ([4]; 0.01 uM): 0(−24) %; Inhibitory activity (%) ([4]; 0.1 uM): 10.4%; Inhibitory activity (%) ([4]; 1 uM): 24.8%; % inhibitory action ([5]; 0.01 uM): 11.2%; % inhibitory action ([5]; 0.1 uM): 29.5%; % inhibitory action ([5]; 1 uM): 36.9%
2 | Cc1nc(-c2ccc(OCCCCOc3ccc(C(=N)NO)cc3)cc2)c(C(C)C)s1 [DW1349, N— hydroxy-4-{4-[4-(5-isopropyl-2-methyl-1,3-thiazol-4-yl)phenoxy]butoxy}-benzamidine] | 113.2 % of control | 19.0 | 101.6 % of control | 17.2 | 0 | 2.3 | 4.5 | 18 | 0 | 2.3 | 4.5 | 18 | 19.3 | 36.1 | 64.7 | 31.9 | 46.8 | 85.5 | –
3 | Cc1nc(-c2ccc(OCCCCCOc3ccc(C(=N)NO)cc3)cc2)c(C(C)C)s1 [DW1350, N-hydroxy-4-{5-[4-(5-isopropyl-2-methyl-1,3-thiazol-4-yl)phenoxy]pentoxy}-benzamidine] | 141.9 % of control | 24.4 | 153.7 % of control | 26.7 | 4.5 | 25.6 | 80 | 98 | 4.5 | 25.6 | 80 | 98 | 45.2 | 52.6 | 72.6 | 38.5 | 62.7 | 88.7 | times better stimulator of osteoblast activity (ALP) than DW1349 ([1]; versus DW1349): 1.25 times; times greater stimulation of osteoblast activity (ALP) than DW1351 and DW1352 ([1]; versus DW1351 and DW1352): 1.15˜1.25 times; times stronger inhibition of osteoclast fusion than DW1349 ([2]; 2 uM, versus DW1349): 17.8 times; pIC50 ([2]; Mus musculus, Osteoclast, 18 hours): 6.09; times more inhibition of osteoclast fusion than DW1351 ([2]; versus DW1351): two fold better inhibitor; pIC50 ([3]; Mus musculus, Osteoclast): 6.09; times better than DW1349 in inhibiting osteoclast activity ([4]; versus DW1349, Table 10): about 1.45 times; times more inhibition of osteoclast activity than DW1351 ([4]; versus DW1351, Table 10): two-fold better inhibitor; times more inhibition of osteoclast differentiation than DW1349 ([5]; versus DW1349, Table 8): 1.34 times; times stronger inhibition of osteoclast differentiation than DW1351 ([5]; versus DW1351, Table 8): about two times better
4 | Cc1nc(-c2ccc(OCCCCOc3ccc(C(=N)N)cc3)cc2)c(C(C)C)s1 [DW1351, 4-{4-[4-(5-isopropyl-2-methyl-1,3-thiazol-4-yl)phenoxy]butoxy}-benzamidine] | 122.5 % of control | 20.8 | 121.2 % of control | 21.0 | 0 | 0 | 38 | 74 | 0 | 0 | 38 | 74 | 2.1 | 26.7 | 51.8 | 23 | 30.6 | 61.5 | –
